Source: ChEMBL document CHEMBL1201862, “PubChem BioAssay data set” (2004)
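Tested at 5 concentrations; 48 h exposure; 96-well plates; endpoints linearly interpolated, else capped at highest concentration. Here, GI50 denotes the concentration required for 50% inhibition of growth.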 Active and inactive are the calls of the source. Rule as the data show it: active = GI50 up to about 1.1 µM and inactive = higher.

Tests used:
Assay in all cases: NCI anticancer screen, dose series, 48 h
[1] = system: ACHN
[2] = system: COLO 205
[3] = system: HCC 2998
[4] = system: HCT-116
[5] = system: HOP-62
[6] = system: NCI-H460
[7] = system: NCI/ADR-RES
[8] = system: OVCAR-5
[9] = system: RPMI-8226
[10] = system: RXF 393
[11] = system: SF-268
[12] = system: SK-MEL-5
[13] = system: SN12C
[14] = system: SNB-19
[15] = system: SNB-75
[16] = system: T47D
[17] = system: TK-10
[18] = system: UACC-257
[19] = system: UO-31
[20] = system: SR

Measured: GI50

Cc1cc(S(=O)(=O)Nc2n[nH]c(Nc3ccccc3)n2)c(S)cc1Cl
inactive: [1] > 10 µM | [2] > 10 µM | [3] > 10 µM | [4] > 10 µM | [5] > 10 µM | [6] > 10 µM | [7] > 10 µM | [8] > 10 µM | [9] > 10 µM | [10] > 10 µM | [11] > 10 µM | [12] > 10 µM | [13] > 10 µM | [14] > 10 µM | [15] > 10 µM | [16] > 10 µM | [17] > 10 µM | [18] > 10 µM | [19] > 10 µM

N#Cc1c(C#N)c(-c2ccccc2)n(-c2ccccc2)c1N
inactive: [1] 50.7 µM | [2] > 100 µM | [4] 5.51 µM | [5] 84.9 µM | [7] > 100 µM | [8] > 100 µM | [9] 5.87 µM | [10] 41.6 µM | [11] 88.3 µM | [12] 18.9 µM | [13] > 100 µM | [14] 30.4 µM | [15] 1.27 µM | [20] 73.8 µM | [16] 6.52 µM | [17] > 100 µM | [18] > 100 µM | [19] 12.8 µM

COCc1nc2c(OC)c(-c3nc4ccc(N5CCN(C)CC5)cc4[nH]3)cc(OC)c2[nH]1
inactive: [1] 65.9 µM | [2] 25.6 µM | [4] 30.8 µM | [5] 32.4 µM | [6] 36.7 µM | [7] > 100 µM | [8] > 100 µM | [9] 32.1 µM | [10] 14.3 µM | [11] > 100 µM | [12] 22.2 µM | [13] 43.9 µM | [14] 48.8 µM | [15] 4.3 µM | [20] 19.7 µM | [16] 65.2 µM | [17] 84.9 µM | [18] 17.7 µM | [19] 31.2 µM

COc1cc(CC2C(=O)OCC2Cc2ccc(OC)c(OC)c2)ccc1O (stereo not given)
inactive: [1] > 88.9 µM | [2] > 100 µM | [4] > 100 µM | [5] > 100 µM | [6] > 100 µM | [7] 43.6 µM | [8] > 100 µM | [9] > 100 µM | [10] > 100 µM | [11] > 100 µM | [12] 4.42 µM | [13] > 100 µM | [14] > 100 µM | [15] > 60.5 µM | [20] > 100 µM | [16] 28.6 µM | [17] > 100 µM | [18] > 50.6 µM | [19] > 100 µM

CCOC(=O)C1=C(N2CCCC2)C(=O)C(C(=O)OCC)C1 (stereo not given)
inactive: [1] > 100 µM | [2] > 100 µM | [3] > 100 µM | [4] > 100 µM | [5] > 100 µM | [6] > 100 µM | [7] > 100 µM | [8] > 100 µM | [9] > 100 µM | [10] > 100 µM | [11] > 100 µM | [12] > 100 µM | [13] > 100 µM | [14] > 100 µM | [15] > 100 µM | [16] > 100 µM | [17] > 100 µM | [18] > 100 µM | [19] > 100 µM

CNC(=O)Oc1ccc(C(=S)Nc2ccc(Br)cc2)cc1
inactive: [1] 24.4 µM | [2] 18.2 µM | [3] 17.8 µM | [4] 19.8 µM | [5] 20.6 µM | [7] 17.6 µM | [8] 25.4 µM | [9] 23 µM | [11] 9.55 µM | [12] 17.8 µM | [14] 36.3 µM | [20] 13.6 µM | [16] 18.5 µM | [18] 28.4 µM | [19] 17 µM

CSc1nc(Cl)c2c(n1)Sc1nc3ccccc3n1N=C2
inactive: [1] 23.7 µM | [2] 23 µM | [3] 26.5 µM | [4] 25.1 µM | [5] 41.7 µM | [6] 56 µM | [7] 21.7 µM | [8] 28.9 µM | [9] 21.6 µM | [10] 22.6 µM | [11] 31 µM | [12] 21.3 µM | [13] 37.8 µM | [14] > 100 µM | [15] 25.9 µM | [16] 23.5 µM | [17] 33.7 µM | [18] 35.8 µM | [19] 18.5 µM

O=C1c2ccccc2C(=O)N1n1c(Cc2ccc(Cl)cc2)n[nH]c1=O
inactive: [1] > 100 µM | [2] > 100 µM | [3] > 100 µM | [4] > 100 µM | [5] > 100 µM | [6] > 100 µM | [7] > 100 µM | [8] > 100 µM | [12] > 100 µM | [13] > 100 µM | [14] > 100 µM | [15] > 100 µM | [20] > 100 µM | [16] > 100 µM | [17] > 100 µM | [18] > 100 µM | [19] > 100 µM
